# In PubChem BioAssay (NCI):
#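 Cultured in 96-well plates, cells were exposed to test compound for 48 hours across five concentrations. TGI marks complete inhibition of growth.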
# How the values were obtained:
# Assay in all cases: DTP human tumour cell line panel, 48 h
# BT-549 breast = tested on: BT-549 breast
# CAKI-1 renal = tested on: CAKI-1 renal
# HCC-2998 colon = tested on: HCC-2998 colon
# HCT-15 colon = tested on: HCT-15 colon
# HL-60(TB) leukemia = tested on: HL-60(TB) leukemia
# HS 578T breast = tested on: HS 578T breast
# KM12 colon = tested on: KM12 colon
# LOX IMVI melanoma = tested on: LOX IMVI melanoma
# MCF7 breast = tested on: MCF7 breast
# NCI-H23 lung = tested on: NCI-H23 lung
# NCI-H460 lung = tested on: NCI-H460 lung
# NCI/ADR-RES ovarian = tested on: NCI/ADR-RES ovarian
# OVCAR-5 ovarian = tested on: OVCAR-5 ovarian
# SF-268 CNS = tested on: SF-268 CNS
# SF-295 CNS = tested on: SF-295 CNS
# SK-MEL-2 melanoma = tested on: SK-MEL-2 melanoma
# SK-MEL-5 melanoma = tested on: SK-MEL-5 melanoma
# SNB-75 CNS = tested on: SNB-75 CNS
# UO-31 renal = tested on: UO-31 renal
Structure (SMILES),TGI (BT-549 breast),TGI (CAKI-1 renal),TGI (HCC-2998 colon),TGI (HCT-15 colon),TGI (HL-60(TB) leukemia),TGI (HS 578T breast),TGI (KM12 colon),TGI (LOX IMVI melanoma),TGI (MCF7 breast),TGI (NCI-H23 lung),TGI (NCI-H460 lung),TGI (NCI/ADR-RES ovarian),TGI (OVCAR-5 ovarian),TGI (SF-268 CNS),TGI (SF-295 CNS),TGI (SK-MEL-2 melanoma),TGI (SK-MEL-5 melanoma),TGI (SNB-75 CNS),TGI (UO-31 renal)
O=C(NCCCl)N(O)C(=O)Nc1ccccc1,> 100 µM,> 100 µM,> 100 µM,> 100 µM,> 100 µM,> 100 µM,> 100 µM,> 100 µM,> 100 µM,> 100 µM,> 100 µM,> 100 µM,> 100 µM,> 100 µM,> 100 µM,> 100 µM,> 100 µM,> 100 µM,> 100 µM
O=C(Nc1nncs1)NS(=O)(=O)n1c(=S)sc2ccccc21,> 100 µM,> 100 µM,> 100 µM,> 100 µM,> 100 µM,> 100 µM,> 100 µM,> 100 µM,> 100 µM,> 100 µM,> 100 µM,> 100 µM,> 100 µM,> 100 µM,> 100 µM,> 100 µM,> 100 µM,> 100 µM,> 100 µM
Cc1cc2c(cc1C)C(=O)C1(C2)Cc2c(C)ccc(C)c2C1=O (centres undefined),> 100 µM,> 100 µM,> 100 µM,> 100 µM,> 100 µM,> 100 µM,> 100 µM,> 100 µM,> 100 µM,,> 100 µM,> 100 µM,> 100 µM,> 100 µM,> 100 µM,> 100 µM,> 100 µM,> 100 µM,> 100 µM
N#Cc1[nH]c(=S)[nH]c1N,> 100 µM,> 100 µM,> 100 µM,> 100 µM,> 100 µM,> 100 µM,,> 100 µM,> 100 µM,> 100 µM,> 100 µM,> 100 µM,> 100 µM,> 100 µM,> 100 µM,> 100 µM,> 100 µM,> 100 µM,> 100 µM
O=C1NC(=O)C(c2c[nH]c3ccccc23)=C1c1cn(C(c2ccccc2)(c2ccccc2)c2ccccc2)cn1,27.2 µM,> 100 µM,16 µM,14.9 µM,20.4 µM,68.2 µM,13.5 µM,22.2 µM,17.7 µM,30.8 µM,14.6 µM,22 µM,23.1 µM,33.2 µM,19.8 µM,25.6 µM,20.8 µM,22.1 µM,
CN(C)c1ccc(/C=N\NC(=O)Nc2cccc3ccccc23)cc1,72.4 µM,27.9 µM,> 100 µM,7.23 µM,7.03 µM,23.1 µM,> 100 µM,22.1 µM,33 µM,76 µM,31.8 µM,78.8 µM,> 100 µM,71.8 µM,,35.7 µM,18.6 µM,32.3 µM,51.6 µM
Cc1ccc(-c2n[nH]c(=O)n2/N=C\c2ccc([N+](=O)[O-])cc2)cc1,> 100 µM,> 100 µM,> 100 µM,> 100 µM,97.6 µM,> 100 µM,> 100 µM,> 100 µM,> 100 µM,> 100 µM,> 100 µM,> 100 µM,> 100 µM,> 100 µM,> 100 µM,> 100 µM,> 100 µM,> 100 µM,> 100 µM
O=c1cc(CO)oc(C(O)c2ccccc2)c1O (centres undefined),> 100 µM,> 100 µM,> 100 µM,> 100 µM,> 100 µM,> 100 µM,> 100 µM,> 100 µM,> 100 µM,> 100 µM,> 100 µM,> 100 µM,> 100 µM,> 100 µM,> 100 µM,> 100 µM,> 100 µM,> 100 µM,> 100 µM
C=C(C(=O)O)[C@@H]1C[C@@H](OC(C)=O)[C@]2(C)CC/C=C(\C)CCC[C@H](C)[C@H](O)[C@@H]1O2,> 100 µM,> 100 µM,> 100 µM,> 100 µM,57.4 µM,> 100 µM,> 100 µM,> 100 µM,> 100 µM,,> 100 µM,> 100 µM,> 100 µM,> 100 µM,> 100 µM,> 100 µM,> 100 µM,> 100 µM,
Nc1nc(NCC2(CO)CC2)cc(=O)[nH]1,> 100 µM,> 100 µM,> 100 µM,> 100 µM,> 100 µM,> 100 µM,> 100 µM,> 100 µM,> 100 µM,> 100 µM,> 100 µM,> 100 µM,> 100 µM,> 100 µM,> 100 µM,> 100 µM,> 100 µM,> 100 µM,> 100 µM
